# Source: patent US9585957B2, “Adenosine receptor agonists and antagonists to modulate T cell responses” (THE JOHNS HOPKINS UNIVERSITY, priority 2007, dated 2017)
# Read-outs that look alike come from different tables or passages of the source.
# Assays:
# [1] = test system: A.E7 T cell clones; assay: Cytokine production and CD25 expression of A.E7s stimulated with anti-CD3 and anti-CD28 in the presence of CGS; assay type: cell-based; conditions: for IC50: T-cell
# Experimental: Studies were conducted to determine the effects of A2a receptor stimulation on T cell function. A.E7 is a clonotypic CD4', Th1 T cell clone specific for pigeon cytochrome c (PCC) and is maintained as previously described (Powell, […]. & Schwartz, R. H. Inhibition of cell cycle progression by rapamycin induces T cell clonal anergy even in the presence of costimulation. J Immunol 162, 2775-84 (1999)). A.[…] were rendered anergic with anti-CD3 or by incubation with APC, PCC and 1 pM CGS-21680. For antibody induced anergy, 6-well plates were previously coated with anti-CD3 three hours prior to stimulation and washed with PBS. For mock stimulations, the well was not coated with anti-CD3. A.[…] were incubated in the coated well overnight at 37° C., then harvested and washed extensively and rested (24 hours for CAMP measurement, 4-6 days for proliferation and cytokine production). […] To assess proliferation to PCC, T cells were extensively washed and 5×10^6 cells were added to 50×10^4 irradiated BIO.A splenocytes and increasing doses of PCC in triplicate in a 96-well flat-bottomed plate. After 48 hours, cells were pulsed with [^3H] thymidine and harvested 16 hrs later. Tritium incorporation was determined by a Packard Matrix 96 direct beta counter (Packard bioscience). […] All conditions were done in triplicate and were cultured overnight. Supernatant was collected and assessed for cytokine levels (eBioscience for IL-2, IFN-y, TNF-a; R&D Systems for GM-CSF) as per manufacturers' instructions. For each sample, multiple dilutions of the supernatant were assayed and concentration was determined based upon the dilution that best fit the most linear aspect of the standard curve. For CD25 measurements, the cells used for cytokine production were stained with anti-CD25, harvested and measured by flow cytometry.
# [2] = test system: 6.5 TCR transgenic T cells; assay: Anergy and LAG-3 induction in primary 6.5 TCR transgenic CD4+ T cells incubated with HA and CGS, then rechallenged; assay type: cell-based, mice
# Experimental: Splenocytes and lymphocytes from A2a receptor wt or null 6.5^+ mice (see below) were harvested and enriched for CD4^+ T cells via negative selection with the CD4^+ T cell isolation kit and LS MACs column (all from Miltenyi Biotech, Auburn, Calif.). […] The T cells were rechallenged for 3-4 hours with 100 ug/mL HA class II peptide, GolgiStop (BD PharMingen) and irradiated APCs.
# The cells were harvested, mRNA isolated with Trizol and cDNA was generated. RT-PCR was performed as previously described (Safford et al. Nat Immunol. 2005; 6:472-480).
# Splenocytes and lymphocytes from A2a receptor wt or null, 6.5^+ mice were harvested and enriched for CD4′ T cells via negative selection with the CD4^+ T cell isolation kit and LS MACs column (all from Miltenyi Biotech, Auburn, Calif.). […] Irradiated splenocytes from mice of the same A2a receptor genotype were used as APCs, at a 10:1 ratio with T cells. After 3 days, the T cells were harvested and isolated via a ficoll gradient, washed extensively and immediately rechallenged for intracellular staining Briefly, the 1×10^5 T cells were stimulated for 3-4 hours with 5×10^5 irradiated A2a receptor wt APCs, […] HA class II peptide and a 1:1000 dilution of GolgiStop (BD PharMingen), in a total volume of […]. After the stimulation, the cells were washed, stained with anti-6.5 and anti-CD4 antibodies, permeablized and fixed, then stained with anti-IFN-y antibody. Finally, the cells were washed and IFN-y production of […], 6.5^+ T cells was analyzed by flow cytometry.
# [3] = test system: 6.5+ T cells in C3HA mice; assay: Survival of C3HA mice after adoptive transfer of 6.5+ T cells (mouse model of autoimmunity); assay type: in vivo
# Experimental: Clonotypic CD4^+ T cells were harvested from 6.5^+ transgenic mice. The unfractionated population was resuspended to contain 1.2×10^6 6.5^+ T cells in 200 uL of HBSS for i.v. injection through the tail vein of C3HA mice. […] The percentage of CD4^+, 6.5^+, Thy 1.1^−, Thy 1.2^− clonotypic T cells was determined by flow cytometric analysis. CD44 level was also analyzed to ensure that these clonotypic T cells were not activated in donor mice and were naive in phenotype. The cells were washed three times with HBSS and the unfractionated population was resuspended to contain the appropriate number of clonotypic T cells in 200 uL of HBSS for i.v. injection through the tail vein of C3HA.
# A survival curve was generated from two separate experiments for a total of 17 mice for each condition.
# [4] = test system: LAG-3; assay: LAG-3 expression by RT-PCR in 6.5+ T cells sorted from CGS-treated C3HA mice; assay type: in vivo; conditions: T cells from CGS-treated versus vehicle-treated C3HA mice (FIG. 5a)
# Experimental: For in vivo studies, recipient C3HA mice were given 1.2×10^6 6.5^+ donor T cells as described above. On Day 3, donor T cells were sorted and cDNA generated as above. RT-PCR was performed as previously described (Safford et al. Nat Immunol. 2005; 6:472-480).
# Recipient mice are given 1.2×10^6 donor T cells as described above. On Day 4, cells from spleens and lymph nodes are harvested and pooled. They are enriched for CD4^+ T cells via negative selection using biotinylated anti-CD8 (Ly-2, 53-6.7), anti-B220 (RA3-6B2) and anti-Thy 1.2(30-H12) antibodies (all from BD Biosciences PharMingen), and MACS streptavidin microbeads and AutoMACS column (Miltenyi Biotech) to deplete CD8^+ T cells, B cells and recipient cells (Thy 1.2′). The remaining cells are then sorted on Thy 1. I and CD4 using FACSAria cell sorter to yield a CD4′, 6.5′ T cell population of greater than 95% purity. RT-PCR was performed as previously described’.
# [5] = test system: 6.5+ T cells in C3HA mice; assay: In vivo suppression: second transfer of lethal numbers of clonotypic 6.5+ T cells into surviving C3HA mice; conditions: mice that survived as a result of CGS treatment; no drug at second transfer (FIG. 5d)
# Experimental: It has been shown that mice that survive the initial transfer of donor T cells can survive subsequent transfer of higher numbers of clonotypic T cells. To determine if adenosine mediates the formation of T regulatory cells, in vivo, we gave the surviving mice from FIG. 4a a transfer of […] clonotypic T cells 4-6 weeks after the first transfer. No CGS is administered upon the second transfer.
# Tests were conducted to determine if the CGS-induced clonotypic regulatory cells could protect the mice upon subsequent rechallenge with a second injection of clonotypic cells. An in vivo suppression assay was performed by adoptively transferring uniformly lethal numbers of clonotypic 6.5^+ T cells (2.5×10^6) into mice that had survived the initial adoptive transfer (and developed regulatory T cells) (FIG. 5d).
structure (smiles),measurement,setting,value
"CCNC(=O)[C@H]1O[C@@H](n2cnc3c(N)nc(NCCc4ccc(CCC(=O)O)cc4)nc32)[C@H](O)[C@@H]1O [CGS, 2-p-(2-carboxyethyl)phenethyl-amino-5-N-ethyl-carboxamidoadenosine]",cytokine production,[1]; A.E7 T cell clones activated with anti-CD3 and anti-CD28 in the presence of CGS,dose-dependent inhibition
same,IC50,"[1]; read-out: ID50, inhibition of GM-CSF production",9.1 nM
same,IC50,"[1]; read-out: ID50, inhibition of IFN-γ production",760 nM
same,IC50,"[1]; read-out: ID50, inhibition of IL-2 production",4.7 nM
same,IC50,"[1]; read-out: ID50, inhibition of TNF-α production",100 nM
same,production of the chemokine MIP-1α,"[1]; anti-CD3 and anti-CD28, 20 nM CGS (FIG. 1d)",not inhibited
same,TCR-induced CD25 expression,"[1]; anti-CD3 and anti-CD28, 1 μM CGS (FIG. 1b)",did not inhibit
same,IL-2 production,"[1]; anti-CD3 and anti-CD28 in the presence of the A2a receptor agonist, 20 nM CGS (FIG. 1d)",markedly decreased
same,IFN-γ production upon rechallenge by intracellular staining,"[2]; A2a receptor Wt 6.5 T cells, HA with 1 μM CGS during primary stimulation (FIG. 3a)",hyporesponsive upon subsequent stimulation
same,CGS-induced anergy in A2a receptor null T cells,"[2]; A2a receptor null 6.5 T cells, HA with 1 μM CGS (FIG. 3a)",resistant to CGS-induced anergy
same,LAG-3 expression,"[2]; CD4+ 6.5+ primary T cells, irradiated APCs and HA, 1 μM CGS, 3 days, mRNA (FIG. 3b)",increase in LAG-3 expression
same,induction of LAG-3 with exogenous IL-2 added,[2]; CGS plus exogenous IL-2,abrogated
same,effect on mice receiving LAG-3 null T cells,"[3]; C3HA mice receiving LAG-3 null T cells, 4 day treatment with CGS (FIG. 5c)",no affect
same,"mice in which death was prevented, Wt T cells","[3]; C3HA mice receiving Wt T cells, 4 day treatment with CGS (FIG. 5c)",100%
same,long-term survival of mice,"[3]; C3HA mice, lethal dose of 6.5+ T cells, CGS 2.5 mg/kg i.p. twice daily for four days after transfer (FIG. 4a)",80%
same,protection of mice given A2a receptor KO T cells,"[3]; C3HA recipients given A2a receptor KO 6.5+ T cells, CGS treatment (FIG. 4d)",fails to protect
same,kinetics of LAG-3 expression in T cells,[4],quicker and more robust
same,survival of the second adoptive transfer,[5],100%
